The target of experiment [1] is DNA gyrase (Escherichia coli, UniProt P0AES4+P0AES6). As to the kind of experiment: Inhibition of Escherichia coli DNA gyrase. The class given is protein-complex assay.
The subject of experiment [2] is Staphylococcus aureus. As to the kind of experiment: Antibacterial activity against methicillin-sensitive Staphylococcus aureus. The class given is functional, organism-based.
For experiment [3], the target named is T1, DNA gyrase (Staphylococcus aureus, UniProt P0A0K8+P20831). As to the kind of experiment: Inhibition of Staphylococcus aureus DNA gyrase. The class given is protein-complex assay.
T1 sequence (P0A0K8 whole entry): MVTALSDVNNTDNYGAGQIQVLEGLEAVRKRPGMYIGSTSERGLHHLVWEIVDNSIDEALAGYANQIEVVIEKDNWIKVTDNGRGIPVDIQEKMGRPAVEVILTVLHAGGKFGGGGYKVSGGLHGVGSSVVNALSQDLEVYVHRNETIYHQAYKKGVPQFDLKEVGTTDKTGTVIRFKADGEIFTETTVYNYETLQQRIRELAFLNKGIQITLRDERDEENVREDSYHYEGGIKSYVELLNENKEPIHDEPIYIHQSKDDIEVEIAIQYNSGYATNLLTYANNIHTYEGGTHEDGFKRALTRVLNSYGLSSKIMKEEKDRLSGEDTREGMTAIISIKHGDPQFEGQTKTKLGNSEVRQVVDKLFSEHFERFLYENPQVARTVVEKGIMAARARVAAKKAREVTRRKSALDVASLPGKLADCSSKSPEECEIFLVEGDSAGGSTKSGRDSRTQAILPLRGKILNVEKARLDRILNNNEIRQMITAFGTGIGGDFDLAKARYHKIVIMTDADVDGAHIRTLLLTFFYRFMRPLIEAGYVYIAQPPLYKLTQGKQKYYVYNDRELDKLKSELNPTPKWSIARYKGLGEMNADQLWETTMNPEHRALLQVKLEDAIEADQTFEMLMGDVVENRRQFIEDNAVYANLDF
T1 sequence (P20831 whole entry): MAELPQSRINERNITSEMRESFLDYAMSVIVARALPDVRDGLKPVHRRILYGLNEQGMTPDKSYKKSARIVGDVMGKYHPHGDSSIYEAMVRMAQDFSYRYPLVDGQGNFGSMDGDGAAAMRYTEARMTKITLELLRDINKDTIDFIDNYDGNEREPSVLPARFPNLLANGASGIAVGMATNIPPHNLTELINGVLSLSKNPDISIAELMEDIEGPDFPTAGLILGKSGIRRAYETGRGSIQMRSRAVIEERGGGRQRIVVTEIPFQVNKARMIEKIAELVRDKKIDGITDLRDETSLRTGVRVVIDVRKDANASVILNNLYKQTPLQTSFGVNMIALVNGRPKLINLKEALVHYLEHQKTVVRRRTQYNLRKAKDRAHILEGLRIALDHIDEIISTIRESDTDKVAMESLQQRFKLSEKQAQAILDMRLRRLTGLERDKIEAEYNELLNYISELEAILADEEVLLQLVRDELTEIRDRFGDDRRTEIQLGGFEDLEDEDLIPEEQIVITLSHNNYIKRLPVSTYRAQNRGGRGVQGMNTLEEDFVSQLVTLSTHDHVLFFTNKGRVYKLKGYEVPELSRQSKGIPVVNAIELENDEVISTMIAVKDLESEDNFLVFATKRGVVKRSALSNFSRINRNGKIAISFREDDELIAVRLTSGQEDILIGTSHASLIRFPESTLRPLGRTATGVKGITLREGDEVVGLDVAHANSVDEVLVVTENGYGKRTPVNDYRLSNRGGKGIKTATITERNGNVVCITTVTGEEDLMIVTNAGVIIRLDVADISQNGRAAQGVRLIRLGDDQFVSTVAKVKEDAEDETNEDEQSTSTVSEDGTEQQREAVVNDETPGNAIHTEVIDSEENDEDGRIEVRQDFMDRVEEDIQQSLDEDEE
For experiment [4], the system named is Staphylococcus aureus. As to the kind of experiment: Antibacterial activity against methicillin-resistant Staphylococcus aureus. The class given is functional, organism-based.
The subject of experiment [5] is Bacillus subtilis. As to the kind of experiment: Antibacterial activity against Bacillus subtilis. The class given is functional.
In experiment [6] the test system is Mycobacterium tuberculosis. As to the kind of experiment: Antimycobacterial activity against Mycobacterium tuberculosis incubated for 7 days by MABA assay. The class given is functional. The note with it: 168 h, time 7 day. Background: Resazurin is reduced to fluorescent resorufin, in cell work by metabolically active cells.
The target in experiment [7] is T2, DNA gyrase subunit A/DNA gyrase subunit B (Mycobacterium tuberculosis (strain ATCC 25618 / H37Rv), UniProt P9WG45+P9WG47). As to the kind of experiment: Inhibition of Mycobacterium tuberculosis (MTB) DNA gyrase using pBR322 DNA by supercoiling assay. The class given is protein-complex assay.
T2 sequence (P9WG45 whole entry): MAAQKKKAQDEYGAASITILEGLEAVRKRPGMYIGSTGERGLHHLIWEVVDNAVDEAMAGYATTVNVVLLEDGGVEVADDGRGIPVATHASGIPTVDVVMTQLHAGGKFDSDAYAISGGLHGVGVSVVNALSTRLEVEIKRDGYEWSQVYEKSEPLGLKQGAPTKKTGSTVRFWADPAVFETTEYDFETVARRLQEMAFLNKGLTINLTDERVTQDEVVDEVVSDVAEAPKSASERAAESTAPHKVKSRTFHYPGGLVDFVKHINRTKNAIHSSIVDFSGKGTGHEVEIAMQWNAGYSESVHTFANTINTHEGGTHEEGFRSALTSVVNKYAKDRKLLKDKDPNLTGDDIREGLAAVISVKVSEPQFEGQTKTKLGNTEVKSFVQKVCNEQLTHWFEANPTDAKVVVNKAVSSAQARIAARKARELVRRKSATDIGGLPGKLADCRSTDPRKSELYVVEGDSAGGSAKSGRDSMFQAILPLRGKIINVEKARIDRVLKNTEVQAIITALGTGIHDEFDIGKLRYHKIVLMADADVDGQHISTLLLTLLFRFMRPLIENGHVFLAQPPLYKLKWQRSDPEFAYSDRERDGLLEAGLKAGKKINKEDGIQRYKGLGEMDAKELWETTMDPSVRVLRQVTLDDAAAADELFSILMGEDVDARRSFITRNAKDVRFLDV
T2 sequence (P9WG47 whole entry): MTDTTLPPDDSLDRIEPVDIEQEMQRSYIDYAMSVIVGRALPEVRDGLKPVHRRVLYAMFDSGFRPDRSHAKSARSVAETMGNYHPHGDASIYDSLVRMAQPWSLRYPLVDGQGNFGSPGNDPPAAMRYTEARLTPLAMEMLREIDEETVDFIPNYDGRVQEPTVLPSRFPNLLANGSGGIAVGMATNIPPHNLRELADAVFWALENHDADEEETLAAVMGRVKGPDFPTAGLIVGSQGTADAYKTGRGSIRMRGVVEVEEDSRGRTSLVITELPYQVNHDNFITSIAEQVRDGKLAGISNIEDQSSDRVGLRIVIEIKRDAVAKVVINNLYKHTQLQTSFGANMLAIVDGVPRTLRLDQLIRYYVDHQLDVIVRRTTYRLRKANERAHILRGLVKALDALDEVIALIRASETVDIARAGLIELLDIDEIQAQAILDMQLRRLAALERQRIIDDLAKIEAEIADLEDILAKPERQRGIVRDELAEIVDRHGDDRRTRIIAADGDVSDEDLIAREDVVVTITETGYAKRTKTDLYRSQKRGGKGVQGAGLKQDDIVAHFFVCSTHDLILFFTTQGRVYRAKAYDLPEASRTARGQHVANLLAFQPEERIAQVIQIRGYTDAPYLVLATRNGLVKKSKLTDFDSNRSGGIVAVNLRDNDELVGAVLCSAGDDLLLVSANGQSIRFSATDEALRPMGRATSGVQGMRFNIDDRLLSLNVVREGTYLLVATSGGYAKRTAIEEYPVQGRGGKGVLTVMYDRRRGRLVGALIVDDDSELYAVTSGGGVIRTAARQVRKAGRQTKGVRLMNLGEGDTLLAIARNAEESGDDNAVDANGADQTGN
Experiment [8] has as its system Mycobacterium tuberculosis. As to the kind of experiment: Antitubercular activity against Mycobacterium tuberculosis H37Rv MTCC-200. The class given is functional.
Another experiment deals with Streptococcus pneumoniae. As to the kind of experiment: Antibacterial activity against Streptococcus pneumoniae. The class given is functional.
Experiment [9] concerns Staphylococcus aureus. As to the kind of experiment: Antibacterial activity against healthcare-acquired methicillin-resistant Staphylococcus aureus. The class given is functional.
The target of experiment [10] is T2, DNA gyrase subunit A/DNA gyrase subunit B. As to the kind of experiment: Inhibition of Mycobacterium tuberculosis DNA gyrase. The class given is protein-complex assay.
The test system of the next experiment is Enterococcus faecalis. As to the kind of experiment: Antibacterial activity against Enterococcus faecalis. The class given is functional.
The subject of experiment [11] is Staphylococcus aureus. As to the kind of experiment: Antibacterial activity against community-acquired methicillin-resistant Staphylococcus aureus. The class given is functional.
The next experiment deals with Acinetobacter baumannii. As to the kind of experiment: Antibacterial activity against Acinetobacter baumannii. The class given is functional.
Experiment [12] concerns Mycolicibacterium smegmatis. As to the kind of experiment: Antibacterial activity against Mycobacterium smegmatis. The class given is functional.
For another experiment, the system named is Pseudomonas aeruginosa. As to the kind of experiment: Antibacterial activity against Pseudomonas aeruginosa. The class given is functional.
Experiment [13] concerns Escherichia coli. As to the kind of experiment: Antibacterial activity against Escherichia coli. The class given is functional.
Experiment [14] concerns Staphylococcus aureus. As to the kind of experiment: Antibacterial activity against Staphylococcus aureus. The class given is functional.
A further experiment relates to Klebsiella pneumoniae. As to the kind of experiment: Antibacterial activity against Klebsiella pneumoniae. The class given is functional.
A further experiment concerns Bacillus cereus. As to the kind of experiment: Antibacterial activity against Bacillus cereus. The class given is functional.
In experiment [15] the target is T1, DNA gyrase. As to the kind of experiment: Inhibition of Staphylococcus aureus DNA gyrase assessed as relaxation of pBR322 DNA by supercoiling assay. The class given is protein-complex assay.
Experiment [16] relates to Mycobacterium tuberculosis. As to the kind of experiment: Anti-tubercular activity against Mycobacterium tuberculosis H37Rv strain. The class given is functional.
The next experiment relates to Salmonella typhimurium. As to the kind of experiment: Antibacterial activity against Salmonella typhimurium assessed as inhibition was bacterial growth by broth micro dilution method. The class given is functional, Salmonella enterica subsp. enterica serovar Typhimurium. The note with it: Salmonella enterica.
Another experiment concerns Salmonella enterica. As to the kind of experiment: Antibacterial activity against Salmonella enterica assessed as inhibition was bacterial growth by broth micro dilution method. The class given is functional.
Experiment [17] can be described thus: Inhibition of Salmonella typhimurium DNA gyrase. Further details: species or system Salmonella enterica subsp. enterica serovar Typhimurium.
Experiment [18] relates to Aggregatibacter actinomycetemcomitans. As to the kind of experiment: Antibacterial activity against Aggregatibacter actinomycetemcomitans. The class given is functional.
Experiment [19] deals with Escherichia coli. As to the kind of experiment: Antibacterial activity against Escherichia coli DSM 1116 by microdilution assay. The class given is functional. For orientation: In broth dilution the organism is exposed to a series of concentrations in liquid medium.
For experiment [20], the system named is Bacillus subtilis. As to the kind of experiment: Antibacterial activity against Bacillus subtilis DSM 10 by microdilution assay. The class given is functional.
The subject of a further experiment is Mycolicibacterium phlei. As to the kind of experiment: Antibacterial activity against Mycobacterium phlei DSM 750 by microdilution assay. The class given is functional.

The values that follow come from ChEMBL document CHEMBL5233247, “Recent advances in DNA gyrase-targeted antimicrobial agents” (Eur J Med Chem, 2020).

In brackets after ≈: the same amount, converted by molar mass. Several values for one entry are separate records, joined by “and”; a condition that tells them apart may be missing. Identical values can stand only once.

Take `COc1cc(C(=O)NCC(=O)O)ccc1NC(=O)c1cc(Cl)c(Cl)[nH]1`: at DNA gyrase [1], 0.12 µM corresponded to half-maximal inhibition (IC50).
Regarding `CCn1cc(C(=O)N[C@H](CCCNC(=N)N)C(=O)N[C@@H](CC2CCCCC2)C(=O)N[C@H](CCCNC(=N)N)C(=O)N[C@@H](CC2CCCCC2)C(=O)N[C@H](CCCNC(=N)N)C(=O)N[C@@H](CC2CCCCC2)C(N)=O)c(=O)c2ccc(C)nc21`, the IC50 in the experiment on Staphylococcus aureus [2] turned out to be 18 µg/mL (≈ 15.5 µM); on DNA gyrase [3], 25 µM; with Staphylococcus aureus [4], 1 µg/mL (≈ 0.862 µM).
In the case of `CCn1cc(-c2nc(NC(=O)c3ccccc3)n[nH]2)c(=O)c2ccc(C)nc21`, in the experiment with Bacillus subtilis [5], the MIC stood at 3.68 µM (≈ 1.38 µg/mL). The molecule further had an IC50 against DNA gyrase [1] of 10.4 µM.
`O=C(O)CCC(=O)Nc1ccc(NC(=O)c2ccco2)cc1` came in with an IC50 against DNA gyrase [3] of 12.9 µM.
With `O=c1nc(N2CCN(C(=S)Nc3ccc(Cl)cc3)CC2)sc2ccc([N+](=O)[O-])cc12`, the MIC in experiment [6] came to 2.83 µM (≈ 1.31 µg/mL). The IC50 in [7] stood at 0.82 µM.
`COc1ccc(C(=O)Oc2ccc(/C=C3\C(=O)Nc4ccccc43)cc2)cc1OC` registered an MIC in experiment [8] of 31 µg/mL (≈ 77.2 µM).
On to `COc1c(N2CCCCC2)c(F)cc2c(=O)c(C(=O)N3CCSC3)cn(C3CC3)c12`, for which the MIC with Streptococcus pneumoniae came to 25 µg/mL (≈ 57.9 µM); in the experiment with Staphylococcus aureus [9] it was 0.62 µg/mL (≈ 1.44 µM); in the experiment with Enterococcus faecalis, 12.6 µg/mL (≈ 29.2 µM); in the experiment with Staphylococcus aureus [2] it was 0.39 µg/mL (≈ 0.904 µM); in the experiment with Staphylococcus aureus [11] it was 25 µg/mL (≈ 57.9 µM); against Acinetobacter baumannii, 12.6 µg/mL (≈ 29.2 µM). In [10], this molecule had an IC50 of 105 µM.
With `CCn1cc(-c2nnc(Nc3ccc(C)cc3)o2)c(=O)c2cc(Br)c(C)nc21`, the MIC (in experiment [12]; against Pseudomonas aeruginosa; in the experiment with Escherichia coli [13]; in the experiment on Staphylococcus aureus [14]; with Klebsiella pneumoniae; with Bacillus cereus) was 5.5 µg/mL (≈ 12.5 µM) each time.
With `COc1cc2c(cc1OCCCC(=O)Nc1cc(C(=O)Nc3ccc4occc4c3)n(C)c1)N=C[C@@H]1CCCN1C2=O`, the IC50 on DNA gyrase [15] is 2.9 µM.
For the molecule `COc1c(N2CC3CCCCC3C2)c(F)cc2c(=O)c(C(=O)N3CCSC3)cn(C3CC3)c12` (stereo unspecified), the MIC against Streptococcus pneumoniae was found to be 50 µg/mL (≈ 106 µM); in the experiment with Staphylococcus aureus [9] it was 0.79 µg/mL (≈ 1.68 µM); against Enterococcus faecalis, 12.6 µg/mL (≈ 26.7 µM); in the experiment on Staphylococcus aureus [2], 0.79 µg/mL (≈ 1.68 µM); against Staphylococcus aureus [11] it was 25 µg/mL (≈ 53 µM); against Acinetobacter baumannii, 101 µg/mL (≈ 214 µM). The molecule further registered an IC50 in [10] of 105 µM.
`O=C1Nc2ccccc2/C1=C/c1ccc(OC(=O)c2ccccc2)cc1` displayed an MIC in experiment [8] of 73 µg/mL (≈ 214 µM).
On to `CCn1cc(C(=O)N[C@@H](CC2CCCCC2)C(=O)N[C@H](CCCNC(=N)N)C(=O)N[C@@H](CC2CCCCC2)C(=O)N[C@H](CCCNC(=N)N)C(=O)N[C@@H](CC2CCCCC2)C(=O)N[C@H](CCCNC(=N)N)C(=O)N[C@@H](CC2CCCCC2)C(N)=O)c(=O)c2ccc(C)nc21`, for which the IC50 in the experiment on Staphylococcus aureus [2] was determined as 13 µg/mL (≈ 9.9 µM); on DNA gyrase [3], 25 µM; with Staphylococcus aureus [4] it was 13 µg/mL (≈ 9.9 µM).
For `O=C(O)c1ccc(CNC(=O)[C@H](Cc2ccc(O)cc2)NC(=O)c2cc(Br)c(Br)[nH]2)cc1`, it took 0.619 µM to reach half-maximal inhibition on DNA gyrase [1] (IC50).
Same read-out and setting: the figure for `COc1ccc2c3conc3c(=O)n(CCN3CCC(NCc4nc5c(cc4F)OCC(=O)N5)CC3)c2c1` is 0.402 µM.
At DNA gyrase [1], `COc1ccc2c3conc3c(=O)n(CCN3CCC(NCc4ccc5c(n4)NC(=O)CO5)CC3)c2c1` had an IC50 of 0.416 µM.
The molecule `NC(=O)c1cnccn1` [PYRAZINAMIDE] displayed an MIC in [16] of 3.12 µM (≈ 0.384 µg/mL).
For the molecule `COc1c(N2CC3(CC3)[C@@](C)(N)C2)c(F)cc2c(=O)c(C(=O)O)cn([C@@H]3C[C@@H]3F)c12`, the MIC in the experiment with Salmonella typhimurium was found to be 0.13 µg/mL (≈ 0.31 µM); in the experiment on Salmonella enterica, 0.06 µg/mL (≈ 0.143 µM). In experiment [17], the IC50 is 0.32 µg/mL and 0.25 µg/mL.
For `COc1cc(/C=N/Nc2nc(-c3ccc(Cl)cc3)cs2)ccc1Oc1ccnc2cc(Cl)ccc12`, the MIC in experiment [16] was determined as 3.12 µM (≈ 1.63 µg/mL).
On to `CCn1cc(-c2nc(NC(=O)c3ccccc3)n[nH]2)c(=O)c2cc(Br)c(C)nc21`, for which the MIC in [18] was 4.25 µM (≈ 1.93 µg/mL).
Take `CCn1cc(-c2nnc(Nc3ccc(OC)cc3)o2)c(=O)c2cc(Br)c(C)nc21`: the MIC (in experiment [12]; in the experiment with Pseudomonas aeruginosa; in the experiment on Escherichia coli [13]; in the experiment with Staphylococcus aureus [14]; against Klebsiella pneumoniae; against Bacillus cereus) was 5.7 µg/mL (≈ 12.5 µM) throughout. Further, the concentration for half-maximal inhibition (IC50) at DNA gyrase [1] is 8.53 µM.
For the molecule `COc1c(NC(=O)c2ccc(NC(=O)C(C)(C)NC(=O)c3ccc(NC(=O)/C(C)=C/c4ccc(O)cc4)cc3)c(OC)c2O)ccc(C(=O)O)c1O`, the MIC amounted to 0.25 µM (≈ 0.178 µg/mL) in the experiment on Escherichia coli [19]; 0.5 µM (≈ 0.356 µg/mL) in the experiment on Escherichia coli [19] (Escherichia coli, DSM 1116, read-out: MIC); 0.5 µM (≈ 0.356 µg/mL) against Bacillus subtilis [20]; 2 µM (≈ 1.43 µg/mL) in the experiment on Mycolicibacterium phlei.
Take `COc1cc2c(cc1OCCCC(=O)Nc1cc(C(=O)Nc3ccc4sccc4c3)n(C)c1)N=C[C@@H]1CCCN1C2=O`: on DNA gyrase [15], the IC50 was 3.89 µM.

As a reminder, the IC50 is the concentration at which inhibition is half-maximal.
